This note sets out measurements from patent US11214803B2, “Modulators of YAP1 expression” (Ionis Pharmaceuticals, Inc., priority 2019, dated 2022).

In data set [1] the test system is Yap1 mRNA. Kind of data set: Inhibition of human Yap1 mRNA in SNU449 hepatocellular carcinoma xenograft tumors (Example 26). The class given is in vivo. The settings on record: SNU449 xenografts in NSG mice, 50 mg/kg twice weekly for five days, relative to PBS treated animals. The procedure, abridged:
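Female NSG mice bearing subcutaneous SNU449 xenografts (about 100 mm^3) dosed with modified oligonucleotides at 50 mg/kg twice weekly for five days, four per group. Tumour Yap1 mRNA measured by RT-qPCR, normalized to actin-beta, expressed as % of PBS-treated controls.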

The test system of data set [2] is Yap1 mRNA. Kind of data set: Dose-dependent inhibition of human Yap1 in A-431 cells (Example 24, 11,000 cells per well, RTS36584, normalized to GAPDH). The class given is cell-based. The conditions noted are these: free uptake, 48 hours; for Yap1 mRNA, % UTC: RTS36584, normalized to GAPDH; for IC50: linear regression on a log/linear plot. The protocol: Modified oligonucleotides described in the studies above were tested at various doses in A-431 cells. Cultured A-431 cells at a density of 11,000 cells per well were treated using free uptake with modified oligonucleotides diluted to concentrations described in the tables below. After approximately 48 hours, Yap1 mRNA levels were measured as previously described using the Human Yap1 primer-probe set RTS36584. Yap1 mRNA levels were normalized to GAPDH content, as measured by primer probe set RTS104 (forward sequence […], designated herein as SEQ ID NO.: 17; reverse sequence […], designated herein as SEQ ID NO.: 18; probe sequence […], designated herein as SEQ ID NO.: 19). Results are presented in the tables below as percent control of the amount of Yap1 mRNA relative to untreated control cells (% UTC). IC50s were calculated using a linear regression on a log/linear plot of the data in excel.

Data set [3] relates to Yap1 mRNA. Kind of data set: Yap1 mRNA in SCC25 cells, RNA analysis (Example 25). The class given is cell-based, human. The settings on record: free uptake, 48 hours, RTS4814, normalized to actin-beta. On the procedure: Modified oligonucleotides described in the studies above were tested at various doses in squamous cell carcinoma cell SCC25. A control oligonucleotide 792169 (a 3-10-3 cET gapmer with a full phosphorothioate backbone, […], designated herein as SEQ ID No.: 2940; is not complementary to any known human gene) was also tested.
Cultured SCC25 cells at a density of 5,000 cells per well were treated using free uptake with modified oligonucleotides diluted to concentrations described in the tables below. After approximately 48 hours, Yap1 mRNA levels were measured as previously described using the Human Yap1 primer-probe set RTS4814. Yap1 mRNA levels were normalized to actin-beta content, as measured by primer probe set RTS5002 (forward sequence […], designated herein as SEQ ID NO.: 20; reverse sequence […], designated herein as SEQ ID NO.: 21; probe sequence […], designated herein as SEQ ID NO.: 22). Results are presented in the tables below as percent control of the amount of Yap1 mRNA relative to untreated control cells (% UTC).

Data set [4] can be described thus: Cynomolgus monkey tolerability, body and organ weight measurements (Example 34). The conditions noted are these: cynomolgus monkeys, 35 mg/kg subcutaneously; for Heart weight / Kidney weight / Liver with gallbladder weight / Spleen weight: necropsy; for Terminal Body Weight: prior to necropsy. Format: in vivo. The protocol:
Cynomolgus monkeys were treated with Ionis modified oligonucleotides selected from studies described in the Examples above. Modified oligonucleotide tolerability was evaluated.
During the study period, the monkeys were observed twice daily for signs of illness or distress. Any animal experiencing more than momentary or slight pain or distress due to the treatment, injury or illness was treated by the veterinary staff with approved analgesics or agents to relieve the pain after consultation with the Study Director. Any animal in poor health or in a possible moribund condition was identified for further monitoring and possible euthanasia. Scheduled euthanasia of the animals was conducted on day 86 approximately 48 hours after the last dose by exsanguination while under deep anesthesia. The protocols described in the Example were approved by the Institutional Animal Care and Use Committee (IACUC).
To evaluate the effect of Ionis oligonucleotides on the overall health of the animals, body and organ weights were measured. Terminal body weight was measured prior to necropsy.

Data set [5] can be described thus: Cynomolgus monkey tolerability, pro-inflammatory proteins analysis, Complement C3 and CRP (Example 34). The conditions noted are these: cynomolgus monkeys, 35 mg/kg subcutaneously; for CRP: day 44. The class given is in vivo. The protocol:
To evaluate any inflammatory effect of Ionis oligonucleotides in cynomolgus monkeys, blood samples were taken for analysis. The monkeys were fasted overnight prior to blood collection. On day 42 (pre-dose and 24 hours post-dose), approximately 0.8 mL of blood was collected from each animal and put into tubes without anticoagulant for serum separation. […] Complement C3 were measured using a Toshiba 120 FR NEO chemistry analyzer (Toshiba Co., Japan). […] Another marker of inflammation, C-Reactive Protein (CRP) was tested together with the clinical chemistry parameters tested for liver function above.

Data set [6] can be described thus: Cynomolgus monkey tolerability, coagulation (Example 34). The class given is in vivo. The settings on record: cynomolgus monkeys, 35 mg/kg subcutaneously, day 44. On the procedure: To evaluate effect of Ionis modified oligonucleotides on coagulation in cynomolgus monkeys, blood samples of approximately 0.9 mL were collected from each of the available study animals on day 44. The samples were collected in tubes containing 3.2% sodium citrate. Coagulation parameters tested include Activated partial thromboplastin time (APTT), prothrombin time (PT) and Figrinogen (FIB).

A short description of data set [7]: Cynomolgus monkey tolerability, urine analysis (Example 34). The settings on record: cynomolgus monkeys, 35 mg/kg subcutaneously, day 44.
Data set [8] is described as follows: Cynomolgus monkey tolerability, kidney and liver function markers (Example 34). The settings on record: cynomolgus monkeys, 35 mg/kg subcutaneously, day 44.

Strand notation (5' to 3'): a small letter for the sugar, then the base; units joined by * are phosphorothioate-linked, units joined directly phosphodiester-linked; [ ] holds rarer units or linkages, { } end groups; capitals alone tell only the bases. k = constrained ethyl (cEt); [5mC] = 5-methylcytosine; d = 2'-deoxy (DNA)

On to “715487 (kA*kT*kT*dA*d[5mC]*dT*dT*d[5mC]*dA*dT*dA*dG*d[5mC]*kT*kT*kA) [compound 715487]”, for which the “Yap1 mRNA in tumors, % control” value in data set [1] is given as 61 % control.

Turning to “1198728 (TATTAGAGTATGTGGC; modified gapmer, further chemistry not given here) [compound 1198728]”, the “Yap1 mRNA, % UTC” value in data set [2] (0.002 μM) came to 1 % UTC. Also, in data set [2] (0.008 μM), the “Yap1 mRNA, % UTC” value is given as 4 % UTC. Moreover, in data set [2] (0.04 μM), the “Yap1 mRNA, % UTC” value is given as 27 % UTC. In data set [2] (0.2 μM), the “Yap1 mRNA, % UTC” value stood at 85 % UTC. Moreover, the “Yap1 mRNA, % UTC” value in data set [2] (1 μM) stood at 87 % UTC. Also, the IC50 in data set [2] was 20 nM. Further, the “Yap1 mRNA, % UTC” value in data set [3] (0.04 μM) was 71 % UTC. For the same substance, the “Yap1 mRNA, % UTC” value in data set [3] (0.2 μM) worked out at 31 % UTC. Further, the “Yap1 mRNA, % UTC” value in data set [3] (1 μM) is on record as 15 % UTC. In addition, the “Yap1 mRNA, % UTC” value in data set [3] (5 μM) was determined as 7 % UTC. The “Yap1 mRNA in tumors, % control” value in data set [1] was 64 % control. Besides, in data set [4], the Heart weight stood at 10 g, the Kidney weight is recorded as 15 g, the “Liver with gallbladder weight” value was determined as 65 g and the Spleen weight is listed as 5 g. For the same substance, the “Terminal Body Weight” value in data set [4] was 2722 g. In data set [5] (Day 42 (pre-dose)), the “Complement C3” value is listed as 93 mg/dL. For the same substance, in data set [5] (day 42 (24 hr post-dose)), the “Complement C3” value stood at 90 mg/dL. The CRP in data set [5] is given as 4.0 mg/L. In data set [6], this substance had an APTT of 18 s, an FIB of 242 mg/dL and a PT of 9 s. In data set [7], this substance registered a UALB of 0.3 mg/dL, a UCRE of 70 mg/dL and a UTP of 16 mg/dL. In data set [8], this substance showed an ALB of 4.1 g/dL, an ALP of 1165 IU/L, an ALT of 58 IU/L and an AST of 92 IU/L. Also, in data set [8], the BUN was found to be 26 mg/dL, the CREA came out at 0.9 mg/dL, the GGT came to 59 IU/L and the GLO is recorded as 3.2 g/dL. In data set [8], this substance came in with a GLU of 95 mg/dL, an HDL of 95 mg/dL, an LDL of 57 mg/dL and a TBIL of 0.3 mg/dL. In data set [8], this substance had a TG of 24 mg/dL and a TP of 7.3 g/dL.

Consider “1198605 (GTAATATTGCAATCTG; modified gapmer, further chemistry not given here) [compound 1198605]”, for which the “Yap1 mRNA, % UTC” value in data set [2] (0.002 μM) is recorded as 0 % UTC. In addition, the “Yap1 mRNA, % UTC” value in data set [2] (0.008 μM) amounted to 2 % UTC. Moreover, the “Yap1 mRNA, % UTC” value in data set [2] (0.04 μM) was 26 % UTC. In addition, the “Yap1 mRNA, % UTC” value in data set [2] (0.2 μM) is recorded as 57 % UTC. In addition, in data set [2] (1 μM), the “Yap1 mRNA, % UTC” value turned out to be 96 % UTC. The substance also came in with an IC50 in data set [2] of 20 nM. Besides, in data set [3] (0.04 μM), the “Yap1 mRNA, % UTC” value was 48 % UTC. Further, the “Yap1 mRNA, % UTC” value in data set [3] (0.2 μM) came out at 23 % UTC. Also, the “Yap1 mRNA, % UTC” value in data set [3] (1 μM) is reported as 10 % UTC. In data set [3] (5 μM), the “Yap1 mRNA, % UTC” value is on record as 5 % UTC. The “Yap1 mRNA in tumors, % control” value in data set [1] worked out at 55 % control. In data set [4], the Heart weight was determined as 11 g, the Kidney weight is on record as 15 g, the “Liver with gallbladder weight” value came to 67 g and the Spleen weight stood at 4 g. For the same substance, the “Terminal Body Weight” value in data set [4] amounted to 2968 g. In addition, the “Complement C3” value in data set [5] (Day 42 (pre-dose)) is 105 mg/dL. For the same substance, the “Complement C3” value in data set [5] (day 42 (24 hr post-dose)) stood at 95 mg/dL. In data set [5], this substance came in with a CRP of 4.2 mg/L. Further, in data set [6], the APTT was 23 s, the FIB is recorded as 236 mg/dL and the PT worked out at 9 s. In data set [7], this substance registered a UALB of 0.4 mg/dL, a UCRE of 69 mg/dL and a UTP of 12 mg/dL. In data set [8], this substance returned an ALB of 4.0 g/dL, an ALP of 1445 IU/L, an ALT of 40 IU/L and an AST of 58 IU/L. In data set [8], this substance showed a BUN of 22 mg/dL, a CREA of 0.8 mg/dL, a GGT of 85 IU/L and a GLO of 2.7 g/dL. In data set [8], the GLU came out at 69 mg/dL, the HDL was found to be 115 mg/dL, the LDL turned out to be 57 mg/dL and the TBIL is on record as 0.2 mg/dL. In data set [8], this substance returned a TG of 25 mg/dL and a TP of 6.7 g/dL.

With “CGCCGATAAGGTACAC (cEt gapmer, phosphorothioate backbone, further chemistry not given here) [ION 792169, reference compound]”, the “Yap1 mRNA, % UTC” value in data set [3] (0.04 μM) worked out at 96 % UTC; in data set [3] (0.2 μM) it was 89 % UTC; in data set [3] (1 μM), 93 % UTC; in data set [3] (5 μM), 98 % UTC.

By IC50 is commonly meant the point on the concentration scale where inhibition reaches its midpoint.
